{
  "source": "patent US20150133434A1",
  "about": "“Compositions and Methods for Reactivating Latent Immunodeficiency Virus” (priority 2012, published 2015)",
  "tested_on": "HIV LTR-GFP in J-Lat A72 cells",
  "experiment": "JQ1 response in A72 cells after shRNA knockdown (cyclin T1, BRD2, BRD4), flow cytometry of GFP",
  "type": "cell-based",
  "experimental": "ShRNA-expressing lentiviral vectors were purchased from Open Biosystems. The plasmids TRCN0000006308 and TRCN0000006310 were used to deplete BRD2, plasmids TRCN0000021424 and TRCN0000021428 were used to deplete BRD4, and plasmids TRCN0000013673 and TRCN0000013675 were used to deplete cyclin T1. The pLKO.1 vector containing scramble shRNA was used as control. […]. J-Lat A72 cells (containing a LTR-GFP construct) were spininfected with virus (1 ng of p24 per 10^6 cells) containing shRNAs against BRD2, BRD4, cyclin T1 or nontargeting control shRNAs and were selected with puromycin (2 μg/ml; Sigma) (Naldini L, et al., Science 1996; 272:263-7). After 4 days of selection, cells were treated with the indicated concentration of drugs. The percentage of GFP^+ cells was determined after 18 h using a MACSQuant VYB FACS analyzer (Miltenyi Biotech GmbH). Cell viability was monitored by forward and side scatter analysis. Analysis was conducted on 3×10,000 live cells per condition, and all experiments were independently repeated at least three times. Data were analyzed using FlowJo 9.4 (Tree Star).\nAs transcription elongation at the HIV promoter uniquely depends on P-TEFb, whether the JQ1 effect in latent cells requires intact P-TEFb was determined. Short hairpin RNAs (shRNAs) directed against cyclin T1, an important component of P-TEFb, were introduced into A72 cells with lentiviral vectors. Knockdown of cyclin T1 yielded lower basal levels in GFP^+ cells than control cells expressing nontargeting shRNAs (FIG. 25A).\nTo test the functional relevance of BET proteins in HIV latency, lentiviral shRNA knockdown studies of endogenous BRD2 and BRD4 proteins were performed in A72 cells lacking Tat. BRD2 is a close relative of BRD4, but lacks a C-terminal PID domain. […] BRD2 binds JQ1 and other BET inhibitors, albeit with lower binding affinities than BRD4.\n(A) A72 cells were infected with virus containing shRNA constructs targeting cyclin T1 or a nontargeting control. Knockdown of cyclin T1 protein levels are shown by immunoblotting with cyclin T1 or the control α-tubulin antibody. At 4 days after infection, cells were treated with JQ1 or DMSO at the indicated concentrations for 18 h and analyzed by flow cytometry. […] Average (±SD) of three experiments is shown. (B) A72 cells were infected with virus containing shRNA constructs targeting BRD2, BRD4 or a nontargeting control. At 4 days after infection, cells were treated with JQ1 or DMSO at the indicated concentrations for 18 h and examined by flow cytometry. […] Results represent average (±SD) of three experiments. Knockdown of BRD2 and BRD4 protein levels were confirmed by immunoblotting with BRD2 and BRD4 antibodies or the control α-tubulin. All treatments in (A) and (B) on the X axis are in μM.",
  "data": [
    {"molecule": "Cc1sc2c(c1C)C(c1ccc(Cl)cc1)=N[C@@H](CC(=O)OC(C)(C)C)c1nnc(C)n1-2", "note": "[JQ1, tert-Butyl 2-((6S)-4-(4-chlorophenyl)-2,3,9-trimethyl-6H-thieno[3,2-f][1,2,4]triazolo[4,3-a][1,4]diazepin-6-yl)acetate]", "values": [
      {"measurement": "activation of the HIV LTR in response to JQ1", "setting": "BRD2 knockdown cells", "value": "twofold"},
      {"measurement": "response to JQ1", "setting": "BRD4 knockdown cells", "value": "not affected"},
      {"measurement": "activation of the HIV LTR in response to JQ1", "setting": "control cells (nontargeting shRNA)", "value": 3.3, "unit": "fold"},
      {"measurement": "cells responding with GFP expression to JQ1, relative to control cells", "setting": "cyclin T1 knockdown cells", "value": "half as many cells responded"}
    ]}
  ]
}
